Measured values as given in patent US9873715B2, “Macrolides useful as anticancer agents” (PIERRE FABRE MEDICAMENT, priority 2013, dated 2018).

Tests used:
Assay type in all cases: cell-based
[1] = test system: KB: human oral carcinoma cell line; assay: cell survival (ATP-lite luminescence), KB; conditions: 48 hours incubation, read-out: EC50 for various tumor cell lines: KB
Experimental: (§1) Molecules (I-1), (I-2) and (I-3) were identified during a test of antiproliferative activity on a metastatic melanoma cell line, WM266-4.
(§2) The cells are seeded in 96-well plates in phenol red-free RPMI 1640 medium (Seromed) to which is added 10% fetal calf serum (100 μl/well, 1·10^4 to 3·10^4 cells/ml depending on the line studied). After incubation for 24 hours at 37° C. in an incubator (5% CO2), the medium is replaced with the same medium further containing the compound to be tested (various concentrations are used) and then the plates are incubated for an additional 48 hours. Cell survival is evaluated by measuring luminescence after ATP release in the medium using the cell lysis solutions, luciferase and luciferin, included in the ATP-lite-M™ kit as recommended by the manufacturer (Packard, Rungis, France). Each experimental condition was tested at least three times in sextuplicate.

[2] = test system: KB-V1: vinblastine-resistant human cervix carcinoma cell line; assay: cell survival (ATP-lite luminescence), KB-V1; conditions: KB-V1, 48 hours incubation, read-out: EC50 for various tumor cell lines: KB-V1
Experimental: as §1, §2

[3] = test system: SkoV3: human ovarian adenocarcinoma cell line; assay: cell survival (ATP-lite luminescence), SkoV3; conditions: SK-OV-3, SkoV3, 48 hours incubation, read-out: EC50 for various tumor cell lines: SkoV3
Experimental: as §1, §2

[4] = test system: A549: human lung adenocarcinoma cell line; assay: cell survival (ATP-lite luminescence), A549; conditions: A549, 48 hours incubation, read-out: EC50 for various tumor cell lines: A549
Experimental: as §1, §2

[5] = test system: LoVo: human colon adenocarcinoma cell line; assay: cell survival (ATP-lite luminescence), LoVo; conditions: 48 hours incubation, read-out: EC50 for various tumor cell lines: LoVo
Experimental: as §1, §2

[6] = test system: BxPC3: human pancreatic adenocarcinoma cell line; assay: cell survival (ATP-lite luminescence), BxPC3; conditions: BXPC-3, BxPC3, 48 hours incubation, read-out: EC50 for various tumor cell lines: BxPC3
Experimental: as §1, §2

[7] = test system: Namalwa: Burkitt lymphoma cell line; assay: cell survival (ATP-lite luminescence), Namalwa; conditions: 48 hours incubation, read-out: EC50 for various tumor cell lines: Namalwa
Experimental: as §1, §2

Row | SMILES | EC50 [1] [nM] | EC50 [2] [nM] | EC50 [3] [nM] | EC50 [4] [nM] | EC50 [5] [nM] | EC50 [6] [nM] | EC50 [7] [nM]
1 | COCC1OC(OC2CC(OC)CC3C2C(C)=CC2/C=C/C=C/C(C)C(/C=C/c4nc(C(C)CCCC#N)oc4C)OC(=O)CC/C=C(C)\C=C\C23C)C(OC)C(OC2OCC(OC)C(O)C2O)C1O (stereo not drawn) [Molecule (I-2)] | 0.3 | 0.49 | 1300 | < 0.001 | 0.011 | 0.21 | 0.36
2 | COCC1OC(OC2CC(OC)CC3C2C(C)=CC2/C=C/C=C/C(C)C(/C=C/c4nc(C(C)CCCC#N)oc4C)OC(=O)CC/C=C(C)\C=C\C23C)C(OC)C(O)C1O (stereo not drawn) [Molecule (I-1)] | 0.31 | 0.7 | 36000 | 0.011 | 0.04 | 0.22 | 0.31
3 | CNC(=O)OC1C(OC)COC(OC2C(O)C(COC)OC(OC3CC(OC)CC4C3C(C)=CC3/C=C/C=C/C(C)C(/C=C/c5nc(C(C)CCCC#N)oc5C)OC(=O)CC/C=C(C)\C=C\C34C)C2OC)C1O (stereo not drawn) [Molecule (I-3)] | 0.024 | 0.73 | 320 | < 0.001 | < 0.01 | 0.012 | 0.32
